Reference: ChEMBL document CHEMBL2021793, “Synthesis, biological evaluation and structure-activity relationships of glycyrrhetinic acid derivatives as novel anti-hepatitis B virus agents” (Bioorg Med Chem Lett, 2012)

Key:
Hepatitis B virus [1] = test: Antiviral activity against Hepatitis B virus infected in human HepG2(2.2.15) cells assessed as reduction in viral DNA replication; assay type: functional, organism-based
Hepatitis B virus [2] = test: Antiviral activity against Hepatitis B virus infected in human HepG2(2.2.15) cells assessed as reduction in hepatitis B surface antigen release; assay type: functional, organism-based
[3] = Cytotoxicity against human HepG2(2.2.15) cells; assay type: cell-based
Hepatitis B virus [4] = test: Antiviral activity against Hepatitis B virus infected in human HepG2(2.2.15) cells assessed as reduction in hepatitis B e-antigen release; assay type: functional, organism-based

Row | Structure (SMILES) | IC50 (Hepatitis B virus [1]) [µM] | IC50 (Hepatitis B virus [2]) [µM] | IC50 (Hepatitis B virus [4]) [µM] | CC50 [3] [µM]
1 | CC1(C)[C@@H](O)CC[C@]2(C)[C@H]3C(=O)C=C4[C@@H]5C[C@@](C)(C(=O)OCC6CCOCC6)CC[C@]5(C)CC[C@@]4(C)[C@]3(C)CC[C@@H]12 | > 479 | > 1910 | > 1910 | > 1910
2 | CC1(C)[C@@H](OC(=O)c2cc(=O)c3ccccc3o2)CC[C@]2(C)[C@H]3CC=C4[C@@H]5C[C@@](C)(C(=O)OCc6ccc(C(F)(F)F)cc6)CC[C@]5(C)CC[C@@]4(C)[C@]3(C)CC[C@@H]12 | > 293 | > 1170 | > 1170 | > 1170
3 | C=CCOC(=O)[C@@]1(C)CC[C@]2(C)CC[C@]3(C)C(=CC(=O)[C@@H]4[C@@]5(C)CC[C@H](O)C(C)(C)[C@@H]5CC[C@]43C)[C@@H]2C1 | > 578 | > 2310 | > 2310 | > 2310
4 | CC1(C)[C@@H](O)CC[C@]2(C)[C@H]3C(=O)C=C4[C@@H]5C[C@@](C)(C(=O)OCc6cc(C(F)(F)F)cc(C(F)(F)F)c6)CC[C@]5(C)CC[C@@]4(C)[C@]3(C)CC[C@@H]12 | > 426 | > 1700 | > 1700 | > 1700
5 | CC1(C)[C@@H](OC(=O)c2cc(=O)c3ccccc3o2)CC[C@]2(C)[C@H]3CC=C4[C@@H]5C[C@@](C)(C(=O)OCc6ccc(Br)cc6F)CC[C@]5(C)CC[C@@]4(C)[C@]3(C)CC[C@@H]12 | > 271 | > 1080 | > 1080 | > 1080
6 | CCCCOC(=O)[C@@]1(C)CC[C@]2(C)CC[C@]3(C)C(=CC(=O)[C@@H]4[C@@]5(C)CC[C@H](O)C(C)(C)[C@@H]5CC[C@]43C)[C@@H]2C1 | > 247 | > 986 | > 986 | > 986
7 | CCOC(=O)CCCOC(=O)[C@@]1(C)CC[C@]2(C)CC[C@]3(C)C(=CC[C@@H]4[C@@]5(C)CC[C@H](OC(=O)c6cc(=O)c7ccccc7o6)C(C)(C)[C@@H]5CC[C@]43C)[C@@H]2C1 | > 294 | > 1180 | > 1180 | > 1180

Further lines, with some results ahead:

Row | IC50 (Hepatitis B virus [1]) [µM] | IC50 (Hepatitis B virus [2]) [µM] | IC50 (Hepatitis B virus [4]) [µM] | Structure (SMILES) | CC50 [3] [µM]
8 | > 362 | > 1450 | > 1450 | CCCCCCCCOC(=O)[C@@]1(C)CC[C@]2(C)CC[C@]3(C)C(=CC(=O)[C@@H]4[C@@]5(C)CC[C@H](O)C(C)(C)[C@@H]5CC[C@]43C)[C@@H]2C1 | > 1450
9 | > 375 | > 1500 | > 1500 | CC1(C)[C@@H](O)CC[C@]2(C)[C@H]3CC=C4[C@@H]5C[C@@](C)(C(=O)OCc6ccc(C(F)(F)F)cc6)CC[C@]5(C)CC[C@@]4(C)[C@]3(C)CC[C@@H]12 | > 1500
10 | > 225 | > 899 | > 899 | COc1cccc(/C=C/C(=O)O[C@H]2CC[C@]3(C)[C@H]4CC=C5[C@@H]6C[C@@](C)(C(=O)OCc7ccc(C(F)(F)F)cc7)CC[C@]6(C)CC[C@@]5(C)[C@]4(C)CC[C@H]3C2(C)C)c1 | > 899
11 | > 247 | > 987 | > 987 | COc1cc(/C=C/C(=O)O[C@H]2CC[C@]3(C)[C@H]4CC=C5[C@@H]6C[C@@](C)(C(=O)OCc7ccc(C(F)(F)F)cc7)CC[C@]6(C)CC[C@@]5(C)[C@]4(C)CC[C@H]3C2(C)C)cc(OC)c1OC | > 987
12 | > 292 | 638 | > 1170 | CCOC(=O)CCCOC(=O)[C@@]1(C)CC[C@]2(C)CC[C@]3(C)C(=CC[C@@H]4[C@@]5(C)CC[C@H](O)C(C)(C)[C@@H]5CC[C@]43C)[C@@H]2C1 | 530
13 | > 250 | > 1000 | > 1000 | COc1cccc(/C=C/C(=O)O[C@H]2CC[C@]3(C)[C@H]4CC=C5[C@@H]6C[C@@](C)(C(=O)OCc7ccc(Br)cc7F)CC[C@]6(C)CC[C@@]5(C)[C@]4(C)CC[C@H]3C2(C)C)c1 | > 1000
